Laboratory results published in PMC5369982, “Near infrared fluorescent imaging of choline kinase alpha expression and inhibition in breast tumors” (Oncotarget, 2017).
Read-outs that look alike come from different tables or passages of the source.

Key:
[1] = system: 4175-Luc+ tumors; experiment: NIRF optical imaging, JAS239 biodistribution in mice bearing 4175-Luc+ tumors; format: in vivo, mouse
Experimental: Bioluminescence and NIRF (Ex. 745 nm; Em. 800 nm) images were acquired in an IVIS Spectrum (PerkinElmer). NIRF is measured in Average Radiant Efficiency, photons per second (p/sec) corrected for the area of the region of interest (ROI) and the efficiency of the lamp (μ Watt *cm^−2 / steradian^-1). For bioluminescence imaging, mice were injected i.p. with 150 mg/kg of firefly D-luciferin (Biosynth). Bioluminescent Radiance (p/sec/cm^2/sr) was monitored by time-course imaging until the luminescence intensity plateaued. For NIRF imaging, mice were injected i.v. with 100 μL vehicle or JAS239 (20 nmol). Two vehicle formulations were tested in mice bearing 4175-Luc+ tumors: the first was 0.1% Tween-80 / 50 mM Tris-HCl, and the second was 1% ethanol diluted in 0.9% saline. ROIs with a 20% threshold were created from the bioluminescence image using the LivingImage software (PerkinElmer) program, and this region was used to analyze intratumoral JAS239 accumulation in the NIRF images. Resected organs were placed in 24-well plates and NIRF was measured to quantify JAS239 biodistribution. For diagnostic studies, mice bearing both MCF7-EV and MCF7-CK+ tumors of approximately 200 μL were injected with 20 nmol JAS239 in Tween-80/Tris (8 mice) or in ethanol/saline (7 mice). The cohorts were euthanized after 90 min / 24h respectively, and tumor-bearing flanks were surgically exposed. NIRF from the tumor-bearing fat pads was subtracted from background muscle signal and the Average Radiant Efficiency measured.

[2] = system: MCF7-EV and MCF7-CK+ tumors; experiment: NIRF optical imaging of JAS239 in mice bearing MCF7-EV and MCF7-CK+ tumors; format: in vivo, mouse
Experimental: All animal studies were approved by the Institutional Animal Care and Use Committee of the University of Pennsylvania. Six week old female athymic nude Foxn1^nu/nu mice (National Cancer Institute) were housed in a temperature-controlled environment with 12 h light/dark cycle. Anesthesia was induced using 2% isoflurane in oxygen for all experiments. For MCF7 tumors, mice were supplemented with 60-day release 0.36 mg 17β-estradiol tablets (Innovative Research of America) using a trochar in the nape of the neck. After 1 week, 4 × 10^6 cells in Matrigel (BD Biosciences) were inoculated into the left (CK+) and contralateral (EV) mammary fat pads. Subcutaneous xenografts, including those analyzed in MRI/MRS studies, were grown on the shoulder to allow for cloaking of the kidneys during optical imaging studies. Tumor growth was determined via caliper measurement of three orthogonal dimensions and volume calculated as length * width * height * π/6.
Bioluminescence and NIRF (Ex. 745 nm; Em. 800 nm) images were acquired in an IVIS Spectrum (PerkinElmer). NIRF is measured in Average Radiant Efficiency, photons per second (p/sec) corrected for the area of the region of interest (ROI) and the efficiency of the lamp (μ Watt *cm^−2 / steradian^-1). […] Bioluminescent Radiance (p/sec/cm^2/sr) was monitored by time-course imaging until the luminescence intensity plateaued. […]

[3] = design: method as in PMID 10397253; details: cited from earlier work

CC1(C)C(=C/C=C/C=C/C=C/C2=[N+](CCO)c3ccccc3C2(C)C)N(CCO)c2ccccc21 [JAS239]
Initial hepatic clearance time ([1]; 20 nmol i.v. in Tween-80/Tris buffer): approximately 75 min
Tumor NIRF emission at 800 nm vs. control ([1]; 20 nmol i.v. in Tween-80/Tris buffer, 90 min): an order of magnitude stronger
Time of maximum NIRF contrast between tumor and background ([1]; 20 nmol i.v. in Tween-80/Tris buffer, post-injection): 90 min
Time of highest tumor signal to noise ([1]; 20 nmol i.v. in ethanol/saline vehicle, subcutaneous tumors): 24 h
Tumor-to-muscle ratio ex vivo ([1]; ethanol/saline vehicle, 24 h post-injection): nearly two-fold
Hepatic signal compared to the Tween-80/Tris vehicle ([1]; ethanol/saline vehicle, 24 h post-injection, resected organs): dropped nearly one order of magnitude
Tumor/normal tissue fluorescence ratio [2]: 2.8 ± 0.2

MN58b [reference compound]
Tolerability ([3]; 10 mg/kg): lethal
Tolerability ([3]; dosed daily for 5 days at 5 mg/kg): tolerable
